{"source": "patent US20210329894A1", "about": "“METHOD FOR PREPARING ALZHEIMER'S DISEASE (AD) ANIMAL MODEL” (Shanxi Medical University, priority 2020, published 2021)", "type_in_all_cases": "in vivo", "key": {"[1]": {"system": "Aβ42", "experiment": "determination of Aβ42 content in the hippocampus (Elisa kit)", "conditions": "KI mice, 4 mmol/L Al(mal)3 i.p. 10 ml/kg, 60 days", "method": "(§1) Example 1 Establishment of aluminum-exposed ApoE4 transgenic mouse model 16 healthy male ApoE4 transgenic mice (KI), 16 ApoE knockout mice (KO) and 16 wild-type mice (C57BL/6J, WT) aged 4 to 5 weeks were selected, with similar activities and weights of 18 g to 20 g. They were randomly divided into control group (NS) and aluminum-exposed group (Al), with 8 animals in each group.\n(§2) An 8 mmol/L aluminum chloride solution and a 24 mmol/L maltol solution were prepared with sterilized triple distilled water, then the two solutions were mixed in a volume ratio of 1:1 to obtain a Al(mal)3 solution with a final concentration of 4 mmol/L, and pH was adjusted to 7.4 with 10% NaOH. The animals in the aluminum-exposed group were intraperitoneally injected with the Al(mal)3 at a volume of 10 ml/kg, with aluminum exposure for 60 days, and interval time of 2 days for every 5 days; and the control group was given the same volume of normal saline (NS).\nThis example was different from the above examples in that the determination of Aβ42 content was added. The hippocampus tissue of a mouse was stripped, and crushed with an ultrasonic processor; the hippocampal tissue protein was extracted with a tissue protein extraction reagent; and the Aβ42 content in the hippocampus was detected with an Aβ42 protein Elisa kit."}, "[2]": {"experiment": "determination of aluminum content in the brain (ICP-MS)", "conditions": "each aluminum-exposed group (KI, KO, WT mice), 4 mmol/L Al(mal)3 i.p. 10 ml/kg, 60 days; vs control group", "method": "as §1\n(§3) An 8 mmol/L aluminum chloride solution and a 24 mmol/L maltol solution were prepared with sterilized triple distilled water, then the two solutions were mixed in a volume ratio of 1:1 to obtain a Al(mal)3 solution with a final concentration of 4 mmol/L, and pH was adjusted to 7.4 with 10% NaOH. […]\nThis example was different from the above Example in that the determination of aluminum content in the brain was added. 60 mg of mouse brain tissue was weighed and put into a microwave digestion tube, 3 ml of nitric acid (guaranteed reagent) was added, and the tube was put in a microwave digestion system for microwave digestion according to a program; after digestion, the solution was filtered with a 0.22 μm microporous filter, and a resulting filtrate was collected in a 5 ml deionized centrifuge tube and then diluted to […] with nitric acid (guaranteed reagent); and the sample was diluted 25 times with Wahaha water, and aluminum content was detected with ICP-MS."}, "[3]": {"system": "ApoE4 transgenic mice (KI)", "experiment": "new object recognition test", "conditions": "4 mmol/L Al(mal)3 i.p. 10 ml/kg, 60 days, testing session T2, 1 h after training, compared among all groups", "method": "as §1, §3\nIn this example, a new object recognition test was conducted on the basis of the above examples. […] The time periods for a mouse to explore the two areas were both recorded by a recording instrument, and the recording time was set to 10 min, after which the mouse was taken out and put back in the original cage. […] Testing session (T2): 1 h after the training session ended, one of the cubes was replaced with a cone, the mouse was placed in exactly the same way as the training session, and the time periods for the mouse to explore two different objects were recorded as a new object recognition time (New, N) and a familiar object time (Familiar, F). […]"}, "[4]": {"system": "tau-5", "experiment": "expression level of tau-5 in the hippocampus (Western blot)", "conditions": "KI mice, 4 mmol/L Al(mal)3 i.p. 10 ml/kg, 60 days; relative expression by Western blot", "method": "as §1, §2\n(§4) This example was different from the above examples in that the determination of expression levels of Tau proteins in the brain was added. The tau-5 and pThr181 levels in animals of each group were determined by Western blot. […] The gray value was analyzed with Quantity one software, and the relative expression level of protein was calculated."}, "[5]": {"system": "pThr181", "experiment": "expression level of pThr181 in the hippocampus (Western blot)", "conditions": "KI mice, 4 mmol/L Al(mal)3 i.p. 10 ml/kg, 60 days; relative expression by Western blot", "method": "as §1, §2, §4"}, "[6]": {"system": "ApoE4 transgenic mice (KI)", "experiment": "Morris water maze (place navigation test and space exploration experiment)", "conditions": "4 mmol/L Al(mal)3 i.p. 10 ml/kg", "method": "as §1, §2\nThis example was different from Example 1 in that a Morris water maze experiment and a place navigation test were added. […]"}}}
{"smiles": "Cc1occc(=O)c1[O][Al]([O]c1c(C)occc1=O)[O]c1c(C)occc1=O", "note": "[Al, Al(mal)3]", "values": [{"measurement": "Aβ42 content in the hippocampus", "setting": "[1]", "value": "significantly increased"}, {"measurement": "brain aluminum content", "setting": "[2]", "value": "significantly higher"}, {"measurement": "discrimination index (DI)", "setting": "[3]", "value": "lowest DI"}, {"measurement": "expression level of tau-5 in the hippocampus", "setting": "[4]", "value": "significantly increased"}, {"measurement": "expression level of pThr181 in the hippocampus", "setting": "[5]", "value": "significantly increased"}, {"measurement": "escape latency (time to find the platform)", "setting": "[6]; 60 days exposure, days 4 and 5 of training, vs control group", "value": "significantly longer"}, {"measurement": "number of crossing the platform", "setting": "[6]; 60 days, space exploration experiment, 60 s, compared among all groups", "value": "least number of crossing the platform"}]}
